Values after ≈ are worked out from the molar mass of the structure shown. Active and inactive are the calls of the source. No cut-off for these calls is given here.
Assays:
[1] = tested on: Mycobacterium tuberculosis; experiment: Antimicrobial activity against Mycobacterium tuberculosis H37Rv by MABA; assay type: functional
[2] = tested on: Mycobacterium tuberculosis; experiment: Antimicrobial activity against Mycobacterium tuberculosis H37Rv; assay type: functional
[3] = Metabolic stability in human liver microsomes assessed as intrinsic clearance; assay type: ADME, Microsome; conditions: read-out: CLH
[4] = Metabolic stability in human liver assessed as intrinsic clearance; assay type: ADME, tissue-based; conditions: read-out: CLH
[5] = Metabolic stability in human liver microsomes assessed as compound remaining after 60 mins in presence of NADPH; assay type: ADME, Microsome; conditions: read-out: Stability
[6] = Metabolic stability in human liver microsomes assessed as half life; assay type: ADME, Microsome
[7] = tested on: Mycobacterium tuberculosis; experiment: Antimicrobial activity against Mycobacterium tuberculosis H37Rv incubated for 7 days by alamar blue microplate reader assay; assay type: functional; conditions: 168 h, time 7 day
[8] = tested on: Mycobacterium tuberculosis; experiment: Antimicrobial activity against Mycobacterium tuberculosis H37Rv by microdilution method; assay type: functional
[9] = tested on: Mycobacterium tuberculosis; experiment: Antimicrobial activity against Mycobacterium tuberculosis H37Rv treated with compound diluted mouse serum at 1:8 to 1:64 serial dilution by MABA; assay type: functional, organism-based
[10] = tested on: Mycobacterium tuberculosis; experiment: Bacteriostatic activity against Mycobacterium tuberculosis; assay type: functional

`Oc1ccc2c(c(-c3nnco3)cn2-c2ccc(Br)cc2)c1CN1CC(F)C1` gave an MIC90 [1] of 0.56 µM (≈ 0.248 µg/mL).
Work on `Cc1ccc(-n2cc(-c3nnco3)c3c(CN4CCC4)c(O)ccc32)s1` yielded an MIC90 [1] of 3 µM (≈ 1.1 µg/mL).
`CCOC(=O)c1c(-c2ccccc2)oc2ccc(O)c(CN3CCC(C)CC3)c12` gave an MIC [2] of 2.3 µM (≈ 0.905 µg/mL).
Work on `CC(=O)c1cn(-c2ccc(Br)cc2)c2ccc(O)c(CN3CC(F)C3)c12` yielded an MIC90 [1] of 1 µM (≈ 0.417 µg/mL).
With `CC(=O)c1cn(-c2ccc(Br)cc2)c2ccc(O)c(CN3CCCCC3)c12` the MIC90 [1] was 0.07 µM (≈ 0.0299 µg/mL).
Work on `CC(=O)c1c(C)n(-c2ccc(C3CCNCC3)cc2)c2ccc(O)c(CN3CCCCC3)c12` yielded a microsomal CLint [3] of 66.9 µL/min/mg, a CLint scaled [4] of 60.2 mL/min/kg and a remaining at 1 h [5] of 11.3%. For the same molecule, the MIC90 [1] was 0.14 µM (≈ 0.0624 µg/mL) and the half-life [6] was 0.345 h.
Work on `CC(=O)c1cn(-c2ccc(-c3ccccc3)s2)c2ccc(O)c(CN3CCC3)c12` yielded a microsomal CLint [3] of 10.7 µL/min/mg, a CLint scaled [4] of 9.6 mL/min/kg and a remaining at 1 h [5] of 68.6%. The MIC90 [1] was 0.04 µM (≈ 0.0161 µg/mL) and the half-life [6] was 2.17 h.
Work on `CC(=O)c1cn(-c2cccs2)c2ccc(O)c(CN3CCC3)c12` yielded an MIC90 [1] of 3 µM (≈ 0.979 µg/mL).
In the case of `O=c1cc(-c2ccccc2O)oc2ccc(O)c(CN3CCC3)c12`, the MIC [7] is reported as 1.39 µM (≈ 0.449 µg/mL).
For `Oc1ccc2c(c(-c3nnco3)cn2-c2ccc(Br)s2)c1CN1CC2(COC2)C1`, the MIC90 [1] was 8 µM (≈ 3.79 µg/mL).
`COC(=O)c1c(NC(=O)c2c(F)c(F)c(F)c(F)c2F)sc2c1CCCCC2` showed an MIC [8] of 1 µM (≈ 0.419 µg/mL).
With `O=c1cc(-c2ccc(O)cc2)oc2ccc(O)c(CN3CCC3)c12` the MIC [7] was 1.39 µM (≈ 0.449 µg/mL).
Molecule `CC(=O)c1cn(-c2cccnc2)c2ccc(O)c(CN3CCC3)c12` has an MIC90 [1] of 100 µM (≈ 32.1 µg/mL).
`CC(=O)c1c(C)n(-c2ccc(Br)cc2)c2ccc(O)c(CN3CCCCC3)c12` gave a microsomal CLint [3] of 23.9 µL/min/mg, a CLint scaled [4] of 21.5 mL/min/kg and a remaining at 1 h [5] of 47.3%. For the same molecule, the MIC90 [1] was 0.28 µM (≈ 0.124 µg/mL) and the half-life [6] was 0.967 h.
`CC(=O)c1cn(-c2ccc(Br)cc2)c2ccc(O)c(CN3CCC(F)CC3)c12` gave an MIC90 [1] of 0.28 µM (≈ 0.125 µg/mL).
`CC(=O)c1cn(-c2ccc(Br)s2)c2ccc(O)c(CN3CCCCC3)c12` gave an MIC90 [1] of 0.58 µM (≈ 0.251 µg/mL).
Molecule `CC(=O)c1cn(-c2ccc(C)s2)c2ccc(O)c(CN3CCC3)c12` has an MIC90 [1] of 0.37 µM (≈ 0.126 µg/mL).
For `CNC(=O)c1cn(-c2ccc(Br)s2)c2ccc(O)c(CN3CCCCC3)c12`, the MIC90 [1] was 9 µM (≈ 4.04 µg/mL).
`Oc1ccc2c(c(-c3nnco3)cn2-c2ccc(Br)s2)c1CN1CCC1` gave an MIC90 [1] of 1 µM (≈ 0.431 µg/mL).
`Oc1ccc2c(c(-c3nnco3)cn2-c2ccc(Br)cc2)c1CN1CCCC1` showed a microsomal CLint [3] of 21.2 µL/min/mg, a CLint scaled [4] of 19 mL/min/kg and a remaining at 1 h [5] of 53%. For the same molecule, the MIC90 [1] was 0.07 µM (≈ 0.0308 µg/mL) and the half-life [6] was 1.09 h.
`Oc1ccc2c(c(-c3nnco3)cn2-c2ccc(Br)cc2)c1CN1CCCCC1` showed a microsomal CLint [3] of 21 µL/min/mg, a CLint scaled [4] of 18.9 mL/min/kg and a remaining at 1 h [5] of 55%. For the same molecule, the MIC90 [1] was 0.07 µM (≈ 0.0317 µg/mL) and the half-life [6] was 1.1 h.
Molecule `CC(=O)c1cn(-c2ncccn2)c2ccc(O)c(CN3CCC3)c12` has an MIC90 [1] of 99 µM (≈ 31.9 µg/mL).
With `CC(=O)c1cn(-c2cnccn2)c2ccc(O)c(CN3CCC3)c12` the MIC90 [1] was 199 µM (≈ 64.2 µg/mL).
`CC(=O)c1ccc(-n2cc(C(C)=O)c3c(CN4CCC4)c(O)ccc32)s1` gave an MIC90 [1] of 5 µM (≈ 1.84 µg/mL).
Molecule `Oc1ccc2c(c(-c3nnco3)cn2-c2ccc(Br)cc2)c1CN1CCC1` has a microsomal CLint [3] of 13.8 µL/min/mg, a CLint scaled [4] of 12.4 mL/min/kg and a remaining at 1 h [5] of 61.7%. The MIC90 [1] was 0.07 µM (≈ 0.0298 µg/mL), the half-life [6] was 1.67 h and the Activity [9] was “Active”.
Molecule `CC(=O)c1cn(-c2ccc(Br)cc2)c2ccc(O)c(CN3CCC3)c12` has an MIC90 [1] of 0.08 µM (≈ 0.0319 µg/mL).
In the case of `Oc1ccc2c(c(-c3nnco3)cn2-c2ccc(Br)cc2)c1CN1CC2(COC2)C1`, the MIC90 [1] is reported as 1 µM (≈ 0.467 µg/mL).
`CC(=O)c1cn(-c2ccc(Br)s2)c2ccc(O)c(CN3CCC3)c12` gave an MIC90 [1] of 0.62 µM (≈ 0.251 µg/mL).
For `CC(=O)c1cn(-c2ccc(Br)s2)c2ccc(O)c(CN3CC4(COC4)C3)c12`, the MIC90 [1] was 2 µM (≈ 0.895 µg/mL).
`Oc1ccc2c(c(-c3nnco3)cn2-c2ccc(Br)cc2)c1CN1CCOCC1` showed an MIC90 [1] of 4 µM (≈ 1.82 µg/mL).
`CC(=O)c1cn(-c2ccc(Br)cc2)c2ccc(O)c(CN3CCCC3)c12` gave an MIC90 [1] of 0.3 µM (≈ 0.124 µg/mL).
Molecule `COc1ccc(OC)c(-c2ccc(-c3cn(CCc4ccc(C(=O)N(C)C)cc4)nn3)cn2)c1` has an MIC [2] of 0.25 µM (≈ 0.114 µg/mL).
Work on `CNC(=O)c1c(-c2ccc(O)cc2)oc2ccc(O)c(CC3CCNCC3)c12` yielded an MIC [10] of 0.06 µM (≈ 0.0228 µg/mL).

From ChEMBL document CHEMBL6078722, “Structure-based development of N-Arylindole derivatives as Pks13 inhibitors against Mycobacterium tuberculosis” (Eur J Med Chem, 2025)
